# How the values were obtained:
# [1] = system: MCF7 cells; assay: clonogenic survival with IR; assay type: cell-based, Human; details: 1 μM
# Protocol: (§1) Cell line γH2AX and 53BP1 foci immunofluorescence and quantitation
# (§2) Cells grown on coverslips or in 96-well plates were treated with 1 or 5 µM NU5455 or DMSO 1 hour prior to irradiation (0, 2.5 or 10 Gy) using an RS 320 X-ray Research System (Gulmay Medical). At set timepoints (15 or 30 minutes, or 1, 4, 5, 6, or 24 hours post-irradiation), cells were washed and fixed in methanol or 3% paraformaldehyde (PFA). […] In A549 and Calu-6, cells were Hoechst stained (5 µg/ml), and the average numbers of γH2AX and 53BP1 foci per cell were quantified from 400 nuclei per sample using an In Cell analyzer 1000 (GE Healthcare). For MCF7 cells, coverslips were mounted using Vectashield mounting medium with DAPI (Vector Labs) and imaged using a Leica TCS SPE confocal fluorescence microscope. Total fluorescence intensity was determined using ImagePro Plus 5.0 software (Media Cybernetics). […]
# (§3) Cells were washed in phosphate-buffered saline (PBS), trypsinized and counted. […] Colonies were fixed using Carnoys fixture (75% v/v methanol, 25% v/v acetic acid, Fisher), stained with crystal violet (0.4% w/v in water), and counted using a ColCount automated colony counter (Oxford Optronics). Cell survival was calculated as a percentage of the untreated control. […]
# [2] = system: DNA-PK–expressing tumor cell lines; assay: clonogenic survival with IR, tumor cell line panel; assay type: cell-based, human; details: 1 μM, 24 hours
# Protocol: as §1, §2, §3
compound,measurement,setting,value
CN(C(=O)CN1CCOCC1)c1ccc2sc3c(-c4cccc5c(=O)cc(N6CC7CCC(C6)O7)oc45)cccc3c2c1 [NU5455],radio-enhancement (LD80),[1]; 24-hour treatment after IR,2.4 fold
same,radio-enhancement (LD80),[1]; 1 hour of treatment after IR,1.2 fold
same,"SER80 values, median over cell lines",[2],2.3 fold
